Results: patent US20240116985A1, “STAPLED PEPTIDES AND METHODS THEREOF” (priority 2020, published 2024)

Tests used:
[1] = biological target: T1, beta-catenin/TCF4 engagement (Homo sapiens, UniProt P35222); assay: Nano-BRET target engagement assay (B-cat-Halo & TCF4-Luc in HEK293 cells); type: cell-based; conditions: absolute IC50; read-out: NanoBRET Abs IC50
T1 construct: expressed in transfected cells; host or cells: HEK293
T1 sequence (P35222 1-781): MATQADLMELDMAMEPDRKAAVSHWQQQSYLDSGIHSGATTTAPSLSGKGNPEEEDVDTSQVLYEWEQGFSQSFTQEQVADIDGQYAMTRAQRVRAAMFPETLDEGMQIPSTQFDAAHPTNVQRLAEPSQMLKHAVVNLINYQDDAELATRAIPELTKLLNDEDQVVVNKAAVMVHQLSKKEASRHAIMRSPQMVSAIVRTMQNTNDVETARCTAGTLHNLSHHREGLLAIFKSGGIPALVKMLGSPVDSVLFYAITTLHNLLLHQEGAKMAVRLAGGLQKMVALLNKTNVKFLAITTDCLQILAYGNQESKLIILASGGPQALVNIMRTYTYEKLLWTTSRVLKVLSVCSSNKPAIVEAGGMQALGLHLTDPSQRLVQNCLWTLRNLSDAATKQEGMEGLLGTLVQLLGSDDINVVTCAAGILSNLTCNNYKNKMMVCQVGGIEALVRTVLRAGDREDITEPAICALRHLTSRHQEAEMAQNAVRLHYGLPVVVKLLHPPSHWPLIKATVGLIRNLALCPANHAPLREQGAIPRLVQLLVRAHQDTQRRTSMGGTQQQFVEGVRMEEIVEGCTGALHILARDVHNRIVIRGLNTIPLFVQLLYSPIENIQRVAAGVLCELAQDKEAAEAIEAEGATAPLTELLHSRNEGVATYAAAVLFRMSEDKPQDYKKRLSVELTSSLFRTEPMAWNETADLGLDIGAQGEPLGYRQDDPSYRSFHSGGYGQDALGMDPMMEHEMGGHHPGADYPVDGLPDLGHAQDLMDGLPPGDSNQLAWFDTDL

[2] = biological target: T2, full-length beta-Catenin (Uniprot ID P35222) (Homo sapiens, UniProt P35222); assay: Fluorescence polarization IC50 (beta-catenin / 5FAM-TCF4 10-53 competition); type: binding; conditions: fluorescence polarization; read-out: beta-Catenin FP IC50
T2 construct: 10 nM full-length beta-Catenin (Uniprot ID P35222)
T2 sequence (P35222 1-781): T1 sequence (P35222 1-781)

CC(=O)N1CCC[C@]12CC=CCCCC1(CCCC=CCCCOC(=O)N3CC[C@@](C(=O)N[C@@H](Cc4ccccc4C(F)(F)F)C(=O)N[C@H](C(=O)N[C@@H](C)C(N)=O)[C@H](C)c4csc5ccccc45)(C3)NC(=O)[C@H](CC(C)C)NC(=O)[C@H](Cc3ccccc3)NC(=O)[C@H](C)NC(=O)[C@H](CCC(N)=O)NC(=O)[C@H](Cc3cccc(C(=O)O)c3)NC(=O)[C@H](CC(=O)O)NC1=O)NC(=O)[C@H](CC(C)(C)C)NC(=O)[C@H](CC(=O)O)NC2=O (stereo partly drawn) [I-2459, Ac-PL3-Asp-Npg-B5-Asp-3COOHF-Gln-Ala-Phe-Leu-PyrS2-2F3MeF-RbMeBztA-Ala-NH2]
IC50 [1]: 15.1 µM | IC50 [2]: 0.056 µM

CC(=O)N1CCC[C@]12CC=CCCCC1(CCCC=CCCCOC(=O)N3CC[C@@](C(=O)N[C@@H](Cc4ccccc4C(F)(F)F)C(=O)N[C@@H](Cc4ccc5ccccc5c4)C(=O)N[C@@H](CCC(N)=O)C(N)=O)(C3)NC(=O)[C@H](CC(C)C)NC(=O)[C@H](Cc3ccccc3)NC(=O)[C@H](C)NC(=O)[C@H](C)NC(=O)[C@H](Cc3cccc(C(=O)O)c3)NC(=O)[C@H](CC(=O)O)NC1=O)NC(=O)[C@H](CC(C)(C)C)NC(=O)[C@H](CC(=O)O)NC2=O (stereo partly drawn) [I-2460, Ac-PL3-Asp-Npg-B5-Asp-3COOHF-Ala-Ala-Phe-Leu-PyrS2-2F3MeF-2NapA-Gln-NH2]
IC50 [1]: 12.8 µM | IC50 [2]: 0.082 µM

CC(=O)N1CCC[C@]12CC=CCCCC1(CCCC=CCCCOC(=O)N3CC[C@@](C(=O)N[C@@H](Cc4ccccc4C(F)(F)F)C(=O)N[C@H](C(=O)N[C@@H](CCC(N)=O)C(N)=O)[C@H](C)c4ccc5ccccc5c4)(C3)NC(=O)[C@H](CC(C)C)NC(=O)[C@H](Cc3ccccc3)NC(=O)[C@H](C)NC(=O)[C@H](C)NC(=O)[C@H](Cc3cccc(C(=O)O)c3)NC(=O)[C@H](CC(=O)O)NC1=O)NC(=O)[C@H](CC(C)(C)C)NC(=O)[C@H](CC(=O)O)NC2=O (stereo partly drawn) [I-2462, Ac-PL3-Asp-Npg-B5-Asp-3COOHF-Ala-Ala-Phe-Leu-PyrS2-2F3MeF-RbMe2NapA-Gln-NH2]
IC50 [1]: 4.7 µM | IC50 [2]: 0.04 µM

CC(=O)N1CCC[C@]12CC=CCCCC1(CCCC=CCCCOC(=O)N3CC[C@@](C(=O)N[C@@H](Cc4ccccc4C(F)(F)F)C(=O)N[C@H](C(=O)N[C@@H](C)C(N)=O)[C@H](C)c4ccc5ccccc5c4)(C3)NC(=O)[C@H](CC(C)C)NC(=O)[C@H](Cc3ccccc3)NC(=O)[C@H](C)NC(=O)[C@H](CCC(N)=O)NC(=O)[C@H](Cc3cccc(C(=O)O)c3)NC(=O)[C@H](CC(=O)O)NC1=O)NC(=O)[C@H](CC(C)(C)C)NC(=O)[C@H](CC(=O)O)NC2=O (stereo partly drawn) [I-2463, Ac-PL3-Asp-Npg-B5-Asp-3COOHF-Gln-Ala-Phe-Leu-PyrS2-2F3MeF-RbMe2NapA-Ala-NH2]
IC50 [1]: 6.5 µM | IC50 [2]: 0.047 µM

CC(=O)N1CCC[C@]12CC=CCCCC1(CCCC=CCCCOC(=O)N3CC[C@@](C(=O)N[C@@H](Cc4ccccc4C(F)(F)F)C(=O)N[C@H](C(=O)N[C@@H](CCC(N)=O)C(N)=O)[C@@H](C)c4ccc5ccccc5c4)(C3)NC(=O)[C@H](CC(C)C)NC(=O)[C@H](Cc3ccccc3)NC(=O)[C@H](C)NC(=O)[C@H](C)NC(=O)[C@H](Cc3cccc(C(=O)O)c3)NC(=O)[C@H](CC(=O)O)NC1=O)NC(=O)[C@H](CC(C)(C)C)NC(=O)[C@H](CC(=O)O)NC2=O (stereo partly drawn) [I-2464, Ac-PL3-Asp-Npg-B5-Asp-3COOHF-Ala-Ala-Phe-Leu-PyrS2-2F3MeF-SbMe2NapA-Gln-NH2]
IC50 [1]: 16.5 µM | IC50 [2]: 0.079 µM

CC(=O)N1CCC[C@]12CC=CCCCC1(CCCC=CCCCOC(=O)N3CC[C@@](C(=O)N[C@@H](Cc4ccccc4C(F)(F)F)C(=O)N[C@H](C(=O)N[C@@H](C)C(N)=O)[C@@H](C)c4ccc5ccccc5c4)(C3)NC(=O)[C@H](CC(C)C)NC(=O)[C@H](Cc3ccccc3)NC(=O)[C@H](C)NC(=O)[C@H](CCC(N)=O)NC(=O)[C@H](Cc3cccc(C(=O)O)c3)NC(=O)[C@H](CC(=O)O)NC1=O)NC(=O)[C@H](CC(C)(C)C)NC(=O)[C@H](CC(=O)O)NC2=O (stereo partly drawn) [I-2465, Ac-PL3-Asp-Npg-B5-Asp-3COOHF-Gln-Ala-Phe-Leu-PyrS2-2F3MeF-SbMe2NapA-Ala-NH2]
IC50 [1]: > 20 µM | IC50 [2]: 0.164 µM

CCNC(=O)CC[C@H](NC(=O)[C@H](Cc1csc2ccccc12)NC(=O)[C@H](Cc1ccsc1)NC(=O)[C@]12CCN(C1)C(=O)OCCCC=CCCCC1(CCCC=CC[C@]3(CCCN3C(C)=O)C(=O)N[C@@H](CC(=O)O)C(=O)N[C@@H](CC(C)(C)C)C(=O)N1)C(=O)N[C@@H](CC(=O)O)C(=O)N[C@@H](CN(CC(=O)O)CC(F)(F)F)C(=O)N[C@@H](C)C(=O)N[C@@H](C)C(=O)N[C@@H](Cc1ccccc1)C(=O)N[C@@H](CC(C)C)C(=O)N2)C(=O)N[C@@H](C)C(N)=O (stereo partly drawn) [I-2471, Ac-PL3-Asp-Npg-B5-Asp-TfeGA-Ala-Ala-Phe-Leu-PyrS2-3Thi-BztA-[NHEt]GlnR-Ala-NH2]
IC50 [1]: 2.1 µM | IC50 [2]: 0.014 µM

CCNC(=O)CC[C@H](NC(=O)[C@H](Cc1csc2ccccc12)NC(=O)[C@H](Cc1ccccc1C(F)(F)F)NC(=O)[C@]12CCN(C1)C(=O)OCCCC=CCCCC1(CCCC=CC[C@]3(CCCN3C(C)=O)C(=O)N[C@@H](CC(=O)O)C(=O)N[C@@H](CC(C)(C)C)C(=O)N1)C(=O)N[C@@H](CC(=O)O)C(=O)N[C@@H](Cc1cccc(C(=O)O)c1)C(=O)N[C@@H](C)C(=O)N[C@@H](C)C(=O)N[C@@H](Cc1ccccc1)C(=O)N[C@@H](CC)C(=O)N2)C(=O)N[C@@H](C)C(N)=O (stereo partly drawn) [I-2472, Ac-PL3-Asp-Npg-B5-Asp-3COOHF-Ala-Ala-Phe-Abu-PyrS2-2F3MeF-BztA-INHEt]GlnR-Ala-NH2]
IC50 [1]: 1.8 µM | IC50 [2]: 0.013 µM

CC(=O)N1CCC[C@]12CC=CCCCC1(CCCC=CCCCOC(=O)N3CC[C@@](C(=O)N[C@@H](Cc4ccsc4)C(=O)N[C@@H](Cc4csc5ccccc45)C(=O)N[C@@H](CCCCN)C(N)=O)(C3)NC(=O)[C@H](CC(N)=O)NC(=O)[C@H](Cc3ccccc3)NC(=O)[C@H](C)NC(=O)C(C)(C)NC(=O)[C@H]([C@@H](C)O)NC(=O)[C@H](CC(N)=O)NC1=O)NC(=O)[C@H](CC(C)(C)C)NC(=O)[C@H](CC(=O)O)NC2=O (stereo partly drawn) [I-2477, Ac-PL3-Asp-Npg-B5-Asn-Thr-Aib-Ala-Phe-Asn-PyrS2-3Thi-BztA-Lys-NH2]
IC50 [1]: > 20 µM | IC50 [2]: 0.165 µM

CC(=O)N1CCC[C@]12CC=CCCCC1(CCCC=CCCCOC(=O)N3CC[C@@](C(=O)N[C@@H](Cc4ccsc4)C(=O)N[C@@H](Cc4csc5ccccc45)C(=O)N[C@@H](Cc4ccc(O)cc4)C(N)=O)(C3)NC(=O)[C@H](CC(N)=O)NC(=O)[C@H](Cc3ccccc3)NC(=O)[C@H](C)NC(=O)C(C)(C)NC(=O)[C@H]([C@@H](C)O)NC(=O)[C@H](CC(N)=O)NC1=O)NC(=O)[C@H](CC(C)(C)C)NC(=O)[C@H](CC(=O)O)NC2=O (stereo partly drawn) [I-2478, Ac-PL3-Asp-Npg-B5-Asn-Thr-Aib-Ala-Phe-Asn-PyrS2-3Thi-BztA-Tyr-NH2]
IC50 [1]: > 20 µM | IC50 [2]: 0.31 µM

CC(=O)N1CCC[C@]12CC=CCCCC1(CCCC=CCCCOC(=O)N3CC[C@@](C(=O)N[C@@H](Cc4ccccc4C(F)(F)F)C(=O)N[C@@H](Cc4c(C(F)(F)F)[nH]c5ccccc45)C(=O)N[C@@H](CCC(N)=O)C(N)=O)(C3)NC(=O)[C@H](CC(C)C)NC(=O)[C@H](Cc3ccccc3)NC(=O)[C@H](C)NC(=O)[C@H](C)NC(=O)[C@H](Cc3cccc(C(=O)O)c3)NC(=O)[C@H](CC(=O)O)NC1=O)NC(=O)[C@H](CC(C)(C)C)NC(=O)[C@H](CC(=O)O)NC2=O (stereo partly drawn) [I-2484, Ac-PL3-Asp-Npg-B5-Asp-3COOHF-Ala-Ala-Phe-Leu-PyrS2-2F3MeF-2F3MeW-Gln-NH2]
IC50 [1]: > 20 µM | IC50 [2]: 6.29 µM

CC(=O)N1CCC[C@]12CC=CCCCC1(CCCC=CCCCOC(=O)N3CC[C@@](C(=O)N[C@@H](Cc4ccccc4C(F)(F)F)C(=O)N[C@@H](Cc4c(C(F)(F)F)[nH]c5ccccc45)C(=O)N[C@@H](C)C(N)=O)(C3)NC(=O)[C@H](CC(C)C)NC(=O)[C@H](Cc3ccccc3)NC(=O)[C@H](C)NC(=O)[C@H](CCC(N)=O)NC(=O)[C@H](Cc3cccc(C(=O)O)c3)NC(=O)[C@H](CC(=O)O)NC1=O)NC(=O)[C@H](CC(C)(C)C)NC(=O)[C@H](CC(=O)O)NC2=O (stereo partly drawn) [I-2485, Ac-PL3-Asp-Npg-B5-Asp-3COOHF-Gln-Ala-Phe-Leu-PyrS2-2F3MeF-2F3MeW-Ala-NH2]
IC50 [1]: > 20 µM | IC50 [2]: 4.75 µM

CC(=O)N1CCC[C@]12CC=CCCCC1(CCCC=CCCCOC(=O)N3CC[C@@](C(=O)N[C@@H](Cc4ccccc4C(F)(F)F)C(=O)N[C@@H](Cc4csc5c(Cl)cccc45)C(=O)N[C@@H](CCC(N)=O)C(N)=O)(C3)NC(=O)[C@H](CC(C)C)NC(=O)[C@H](Cc3ccccc3)NC(=O)[C@H](C)NC(=O)[C@H](C)NC(=O)[C@H](Cc3cccc(C(=O)O)c3)NC(=O)[C@H](CC(=O)O)NC1=O)NC(=O)[C@H](CC(C)(C)C)NC(=O)[C@H](CC(=O)O)NC2=O (stereo partly drawn) [I-2486, Ac-PL3-Asp-Npg-B5-Asp-3COOHF-Ala-Ala-Phe-Leu-PyrS2-2F3MeF-7C1BztA-Gln-NH2]
IC50 [1]: 3.7 µM | IC50 [2]: 0.034 µM
